Measured values from publication PMC12386809, “Phenanthrene Monomers and Dimers from Juncus tenuis with Antiproliferative Activity and Synergistic Effect with Doxorubicin Against Human Colon Cancer Cell Lines” (International Journal of Molecular Sciences, 2025).
Like-named read-outs stand apart in the source and are kept apart here.

What was measured:
[1] = tested on: COLO 205 (doxorubicin-sensitive) human colonic adenocarcinoma cells; experiment: MTT antiproliferative assay, COLO 205; assay type: cell-based; settings: read-out: IC50 (µM) ± SD COLO 205
Experimental: (§1) The antiproliferative effects of the isolated phenanthrenes (compounds 1–19) were evaluated using human cancer cell lines, including doxorubicin-sensitive colonic adenocarcinoma COLO 205 and multidrug-resistant colonic adenocarcinoma COLO 320/MDR-LRP (which expresses P-glycoprotein [MDR1] and LRP), as well as non-cancerous human lung fibroblast CCD-19Lu cells. CCD-19Lu was chosen because it is a well-characterized, non-tumorigenic cell line commonly used to assess general cytotoxicity. Moreover, data from the literature support the use of lung fibroblast cell lines—including CCD-19Lu—as normal controls in studies involving colon cancer cells such as Colo 205 and Colo 320 [33]. The thiazolyl blue tetrazolium bromide (MTT) assay was employed to determine the concentration of each compound required to inhibit 50% of the cell viability (IC50), as summarized in Table 3.
(§2) The human colon adenocarcinoma cells—COLO 205 (CCL-222, doxorubicin-sensitive) and COLO 320/MDR-LRP (ATCC-CCL-220.1, multidrug-resistant, expressing P-gp)—were cultured in RPMI 1640 medium supplemented with 10% heat-inactivated fetal bovine serum, 2 mM of L-glutamine, 1 mM of sodium pyruvate, and 100 mM of HEPES. The non-cancerous human lung fibroblast cell line CCD-19Lu was maintained in Eagle’s Minimal Essential Medium (EMEM; containing 4.5 g/L of glucose) supplemented with a non-essential amino acid mixture, selected vitamins, and 10% heat-inactivated fetal bovine serum. All of the cell lines were detached using 0.25% trypsin and 0.02% EDTA for 5 min at 37 °C. The cell lines were obtained from LGC Promochem (Teddington, England).
(§3) Human colonic adenocarcinoma cell lines—doxorubicin-sensitive COLO 205 and multidrug-resistant COLO 320—as well as the non-cancerous human lung fibroblast cell line CCD-19Lu were used to evaluate the effects of the test compounds on cell proliferation. The assays were conducted in 96-well flat-bottomed microtiter plates. Stock solutions of the compounds were prepared in dimethyl sulfoxide (DMSO), with the final DMSO concentration kept below 1% in all samples. The compounds were diluted in 100 µL of the appropriate culture medium. Adherent cells were cultured in EMEM supplemented with 10% heat-inactivated fetal bovine serum and seeded into 96-well plates at a density of 6 × 10^3 cells per 100 µL per well. The cells were allowed to adhere for 24 h at 37 °C in a humidified incubator with 5% CO2. After incubation, the medium was removed and replaced with 100 µL of fresh medium. Serial dilutions of the compounds were prepared in separate plates and added to the cells, starting from a concentration of 100 µM with twofold serial dilutions (final concentration range: 100–0.19 µM). The cells were then incubated for 72 h at 37 °C. At the end of the incubation period, 20 µL of thiazolyl blue tetrazolium bromide (MTT) solution (5 mg/mL, Sigma) was added to each well. After 4 h of incubation at 37 °C, 100 µL of 10% sodium dodecyl sulfate (SDS) in 0.01 M HCl was added to solubilize the formazan crystals, and the plates were incubated overnight at 37 °C. Cell viability was assessed by measuring the optical density (OD) at 540/630 nm using a Multiscan EX ELISA reader (Thermo Labsystems, Cheshire, WA, USA).
(§4) The inhibitory concentration that reduced cell growth by 50% (IC50) was determined from the dose–response curves. The percent inhibition was calculated using the formula100 − ((OD_sample − OD_medium control)/(OD_cell control − OD_medium control)) × 100
(§5) Dose–response curves were generated by plotting the percent inhibition against the logarithm of the compound concentrations and fitted using Prism5 software (Version 6, GraphPad Software Inc., San Diego, CA, USA). The IC50 values were derived from four independent experiments conducted in parallel for each cell line and are reported as the mean values.

[2] = tested on: COLO 320/MDR-LRP multidrug-resistant human colonic adenocarcinoma cells; experiment: MTT antiproliferative assay, COLO 320; assay type: cell-based; settings: COLO 320 (multidrug-resistant), read-out: IC50 (µM) ± SD COLO 320
Experimental: as §1, §2, §3, §4, §5

[3] = tested on: CCD-19Lu non-cancerous human lung fibroblast cells; experiment: MTT antiproliferative assay, CCD-19Lu; assay type: cell-based; settings: 72 h, CCD-19Lu non-tumorigenic fibroblasts, read-out: IC50 (µM) ± SD CCD-19Lu
Experimental: as §1, §2, §3, §4, §5

[4] = tested on: multidrug-resistant COLO 320 cells; experiment: Drug combination assay with doxorubicin (Chou-Talalay, MTT); assay type: cell-based, human; settings: for Interaction: interaction with doxorubicin in COLO 320, class from CI; for CI at ED50 (combination index): combination with doxorubicin, COLO 320, 72 h, Chou-Talalay
Experimental: One promising approach involves the discovery of new bioactive natural products. To explore this, a chemosensitivity assay was conducted to examine the in vitro interactions between the isolated compounds and the antineoplastic agent doxorubicin, a substrate of P-glycoprotein (P-gp). A combination chemotherapy model was applied using human COLO 320 colon carcinoma cells. The combination index (CI), calculated according to the Chou–Talalay method, was used to evaluate drug–drug interactions, classifying them as synergistic (CI < 1), additive (CI = 1), or antagonistic (CI > 1) (Table 4).
The multidrug-resistant COLO 320 cell line was used to perform the drug combination assay. Doxorubicin (2 mg/mL, Teva Pharmaceuticals, Budapest, Hungary) was serially diluted horizontally, starting with 8.6 µM. The resistance modifier was subsequently diluted vertically, with the starting concentration determined based on the IC50 value. Doxorubicin was diluted horizontally in 100 µL, while the resistance modifiers were diluted vertically in 50 µL in the microtiter plate. The compounds and doxorubicin were prepared as separate dilutions. The cells were seeded at a density of 6 × 10^3 cells per well into 100 µL of medium and incubated for 24 h at 37 °C in a 5% CO2 atmosphere prior to treatment. After this period, the culture medium was removed, and 50 µL of fresh medium was added to each well, followed by the addition of 50 µL of the diluted compounds, resulting in a final volume of 200 µL per well. The plates were then incubated for 72 h at 37 °C under 5% CO2. The cell viability was assessed at the end of incubation using the MTT assay, as described previously. Drug interactions were analyzed using CompuSyn software (Version 1.00).
The dose–response curves for individual agents and their combinations were fitted to a linear model based on the median-effect equation to calculate the median effective dose (IC50) and the slope (m). The quality of the fit was evaluated using the linear correlation coefficient (r), and only data with r > 0.90 are reported. The extent of drug interaction was quantified using the combination index (CI), where CI ≈ 1 indicated an additive effect, CI < 1 signified synergy, and CI > 1 denoted antagonism.

[5] = tested on: HT22 cells (mouse hippocampal neuroblastoma cell line); design: method as in doi:10.1007/s11101-018-9561-5, PMID 25794817; settings: 100 µM, 24 h; cited from earlier work

Row | IC50 ([1]; Homo sapiens, COLO 205, 72 h) | IC50 ([2]; Homo sapiens, COLO 320, 72 h) | IC50 ([1]; 72 h) | Structure (SMILES) | IC50 [3] | IC50 ([2]; 72 h) | Interaction [4] | CI at ED50 (combination index) [4] | IC50 ([1]; Homo sapiens, 72 h) | IC50 ([2]; Homo sapiens, 72 h) | decrease in MTT reduction [5]
1 | > 100 µM | > 100 µM |  | C=Cc1cc(O)c(CO)c2c1-c1ccc(O)c(C)c1CC2 [Compound 3, 2,7-dihydroxy-8-hydroxymethyl-1-methyl-5-vinyl-9,10-dihydrophenanthrene] | 96.8 ± 1.79 µM |  |  |  |  |  | 
2 | 7.6 ± 0.13 µM | 15.7 ± 2.2 µM |  | C=Cc1cc(O)cc2c1-c1cc(-c3cc4c(c(C)c3O)CCc3cc(O)cc(C(C)OC)c3-4)c(O)c(C)c1CC2 (stereo not shown) [Compound 4, tenuin D] | 9.93 ± 0.84 µM |  | synergism (0.3 < CI < 0.7, synergism) | 0.669 |  |  | 
3 | 34.73 ± 0.1 µM | 25.5 ± 2.05 µM |  | C=Cc1cc(O)cc2c1-c1ccc(OC)c(C)c1CC2 [Compound 12] | 28.7 ± 1.11 µM |  | moderate antagonism | 1.347 |  |  | 
4 | 45.4 ± 2.16 µM | 47.6 ± 1.01 µM |  | C=Cc1cc(C(=O)O)cc2c1-c1ccc(O)c(C)c1CC2 [Compound 15] | > 100 µM |  | antagonism (1.45 < CI < 3.3, antagonism) | 1.927 |  |  | 
5 | 43.2 ± 3.82 µM | 35.1 ± 1.1 µM |  | C=Cc1cc(O)c(C)c2c1-c1ccc(O)c(C)c1CC2 [Compound 17, 2,7-dihydroxy-1,8-dimethyl-5-vinyl-9,10-dihydrophenanthrene] | 64.7 ± 3.36 µM |  | synergism (0.3 < CI < 0.7, synergism) | 0.670 |  |  | 
6 | 10.9 µM | 17.3 ± 0.87 µM | 10.9 ± 0.51 µM | C=Cc1cc(O)cc2c1-c1cc(-c3cc4c(c(C)c3O)CCc3cc(O)cc(C=C)c3-4)c(O)c(C)c1CC2 [Compound 19, effususin A] | 18.8 ± 0.06 µM |  |  |  |  |  | 

Further lines, the compound ahead of its results:

Row | Structure (SMILES) | IC50 ([1]; Homo sapiens, COLO 205, 72 h) | IC50 ([2]; Homo sapiens, COLO 320, 72 h) | IC50 ([1]; 72 h) | IC50 [3] | IC50 ([2]; 72 h) | Interaction [4] | CI at ED50 (combination index) [4] | IC50 ([1]; Homo sapiens, 72 h) | IC50 ([2]; Homo sapiens, 72 h) | decrease in MTT reduction [5]
7 | C=Cc1cc(O)cc2ccc3c(c12)C=CC(=O)C3(C)O (stereo not shown) [Compound 1, Tenuin A] | > 100 µM | > 100 µM |  | > 100 µM |  |  |  |  |  | 
8 | C=Cc1cc2c(ccc3c(C)c(O)ccc32)cc1CO [Compound 2, tenuin B] | 48.4 µM | 38.3 µM | 48.4 ± 1.03 µM | 96.08 ± 0.82 µM | 38.3 ± 1.84 µM | very strong synergism (CI < 0.1 indicates very strong synergism) |  |  |  | 
9 | C=Cc1cc(O)cc2c1-c1cc(-c3c(O)cc4c(c3C=C)-c3ccc(O)c(C)c3CC4)c(O)c(C)c1CC2 [Compound 5, 1,1′-dimethyl-5,5′-divinyl-9,9′,10,10′-tetrahydro-[6,3′-biphenanthrene]-2,2′,7,7′-tetraol] | 11.6 µM | 12 ± 1.58 µM | 11.6 ± 0.22 µM | 13.8 ± 0.82 µM |  | synergism (0.3 < CI < 0.7, synergism) | 0.433 |  |  | 
10 | C=Cc1cc(O)cc2ccc3c(C)c(O)ccc3c12 [Compound 6, dehydroeffusol] |  |  |  | 58.17 ± 0.51 µM |  |  | 0.266 | 36.7 ± 2.29 µM | 35.6 ± 3.89 µM | 
11 | C=Cc1c(C)c(O)cc2ccc3c(C)c(O)ccc3c12 [Compound 7, dehydrojuncusol] |  |  |  | 42.04 ± 0.39 µM |  |  | 0.117 | 28.16 ± 0.27 µM | 45.3 ± 2.78 µM | 
12 | C=Cc1c(CO)ccc2c1ccc1c(C)c(O)ccc12 [Compound 9] | > 100 µM | 42.6 ± 2.98 µM |  | 75.3 ± 2.59 µM |  | moderate antagonism | 1.427 |  |  | 
13 | C=Cc1cc(CO)cc2c1-c1ccc(O)c(C)c1CC2 [Compound 13] | 37 ± 3.28 µM | 35.2 ± 4.68 µM |  | 69.3 ± 1.77 µM |  |  | 0.163 |  |  | 
14 | C=Cc1cc(C=O)cc2c1-c1ccc(O)c(C)c1CC2 [Compound 14] | 57.2 ± 3.98 µM | 39.58 ± 0.27 µM |  | 66.4 ± 1.58 µM |  |  | 0.219 |  |  | 
15 | C=Cc1c(C)c(O)cc2c1-c1ccc(OC)c(C)c1CC2 [Compound 16, compressin A] | 35.8 ± 2.7 µM | 19.2 ± 0.32 µM |  | 28 ± 2.73 µM |  | antagonism (1.45 < CI < 3.3, antagonism) | 2.312 |  |  | 
16 | C=Cc1c(CO)ccc2c1CCc1c-2ccc(O)c1C [Compound 18] | 50.2 ± 0.74 µM | 31.5 ± 2.65 µM |  | 70.8 ± 3.25 µM |  |  | 0.189 |  |  | 
17 | COc1cccc2c1C(=O)c1c(O)c3c(c(O)c1C2=O)C[C@@](O)(C(=O)CO)C[C@@H]3O[C@H]1C[C@H](N)[C@H](O)[C@H](C)O1 [doxorubicin] | 0.53 ± 0.05 µM | 1.72 ± 0.5 µM |  | 1.03 ± 0.18 µM |  |  |  |  |  | 
18 | C=Cc1c(C)c(O)cc2c1CCc1c-2ccc(O)c1C [juncuenin B, reference compound] |  |  |  |  |  |  |  |  |  | 13.6%
